The assay addresses T1, mouse OTOP1 (mOTOP1) (Mus musculus, UniProt Q80VM9).
T1 construct: expressed in transfected cells; host or cells: HEK-293 (CRL-1573, ATCC)
T1 sequence (Q80VM9 1-600): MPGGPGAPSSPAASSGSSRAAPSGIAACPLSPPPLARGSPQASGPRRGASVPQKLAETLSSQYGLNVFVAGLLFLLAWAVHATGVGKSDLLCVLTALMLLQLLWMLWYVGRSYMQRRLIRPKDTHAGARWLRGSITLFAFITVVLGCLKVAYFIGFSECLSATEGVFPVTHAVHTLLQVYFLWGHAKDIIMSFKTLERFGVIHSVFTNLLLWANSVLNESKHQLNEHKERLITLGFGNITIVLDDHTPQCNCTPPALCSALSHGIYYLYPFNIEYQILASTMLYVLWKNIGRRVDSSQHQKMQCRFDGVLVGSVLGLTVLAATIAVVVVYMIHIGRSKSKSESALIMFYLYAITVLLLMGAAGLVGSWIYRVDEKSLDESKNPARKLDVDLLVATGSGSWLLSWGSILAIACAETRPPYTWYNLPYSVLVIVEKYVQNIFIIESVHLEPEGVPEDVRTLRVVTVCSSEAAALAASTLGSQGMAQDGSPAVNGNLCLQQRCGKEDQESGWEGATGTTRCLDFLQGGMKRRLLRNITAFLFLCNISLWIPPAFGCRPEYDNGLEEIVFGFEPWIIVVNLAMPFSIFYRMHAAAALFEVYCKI
As to the kind of experiment: Whole-cell patch-clamp, inhibition of currents, mOTOP1 in HEK-293 cells. The settings on record: HEK293, 100 µM (saturating concentration of C2.2). The class given is cell-based. From the text: The second series of compounds was again tested by whole-cell patch-clamp recording of DrOTOP1 expressed in HEK-293 cells. Of the 54 compounds tested, we identified 16 that inhibited DrOTOP1 acid-induced currents by over 25% (Fig. 2D and Supplementary Fig. 3E). […] The Hill coefficient of 1.52 indicated positive cooperativity and multiple binding sites, similar to C11. We next tested each of these compounds against mouse OTOP1 (mOTOP1) and human (Homo sapiens) OTOP1 (hOTOP1), which are among the closest related proteins in the mammalian proteome. […] For both compounds, we also determined whether there was any pH-dependence to their inhibitory effect by measuring dose-response curves over a range from pH 6.0, where sizable currents first appear, to pH 5.0. […]
Whole-cell patch-clamp recording was performed as previously described[6],[22],[25]. Recordings were made with an Axopatch 200B amplifier, digitized with a Digidata 1322a 16-bit data acquisition system, acquired with pClamp 8.2 and analyzed with Clampfit 10 (Molecular Devices). […]
All data are presented as mean ± SEM unless otherwise noted, and each data point represents an independent replicant. Inhibition of compounds was quantified as ((I2peak-I1)/(I2peak))*100, where I1 is the current immediately before wash-off and I2peak is the maximum recovered current (Supplementary Fig. 2). […]

One may read the inhibition as how much of the control response was suppressed. Higher therefore signals a response far below the control. The compound `C=C(C)COc1ccccc1NC(=O)c1nc[nH]c1C` [C2.2] had an inhibition at 100 µM of 1.92%.

For the origin of these results see paper PMC12549899 (Nature Communications, 2025).
